Experimental data: paper PMC5563285 (Protein & Cell, 2017)
Positions of bridges follow the written chain, without caps; N, C: chain ends. Residues, ends and D or L forms follow the SMILES beside them.

What was measured:
[1] = target: T1, Ac-AChBP (acetylcholine binding protein) (Aplysia californica, UniProt Q8WSF8); assay: biochemical
T1 construct: The cDNA encoding the full-length Ac-AChBP was cloned into the pFastBac-Dual vector; 6xHis (C); made in house; host or cells: High Five insect cells (baculovirus, Bac-to-Bac; virus made in Sf9)
T1 sequence (Q8WSF8 20-236): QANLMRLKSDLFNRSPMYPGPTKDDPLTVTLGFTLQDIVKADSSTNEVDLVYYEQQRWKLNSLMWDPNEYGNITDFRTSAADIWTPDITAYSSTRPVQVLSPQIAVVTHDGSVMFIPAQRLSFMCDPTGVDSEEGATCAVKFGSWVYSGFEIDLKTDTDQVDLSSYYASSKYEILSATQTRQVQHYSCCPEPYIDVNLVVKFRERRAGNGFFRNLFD

[2] = target: Aplysia californica acetylcholine binding protein (Ac-AChBP) (Aplysia californica); assay: SPR

For CC[C@H](C)[C@@H]1NC(=O)[C@H](CCC(=O)O)NC(=O)[C@@H]2CCCN2C(=O)[C@H](Cc2cnc[nH]2)NC(=O)[C@H](C)NC(=O)[C@H](C(C)C)NC(=O)[C@H](CC(N)=O)NC(=O)[C@@H]2CSSC[C@H](NC(=O)CN)C(=O)N[C@@H](CSSC[C@@H](C(N)=O)NC1=O)C(=O)N[C@@H](CO)C(=O)N[C@@H](Cc1cnc[nH]1)C(=O)N1CCC[C@H]1C(=O)N[C@@H](C)C(=O)N2 [LvIA (D11A)] (H-GCCSHPACNVAHPEIC-NH2; disulfide 2-8, 3-16), the Kd [1] was 17.5 nM.

CC[C@H](C)[C@@H]1NC(=O)[C@H](CCC(=O)O)NC(=O)[C@@H]2CCCN2C(=O)[C@H](Cc2cnc[nH]2)NC(=O)[C@H](CC(=O)O)NC(=O)[C@H](C(C)C)NC(=O)[C@H](C)NC(=O)[C@@H]2CSSC[C@H](NC(=O)CN)C(=O)N[C@@H](CSSC[C@@H](C(N)=O)NC1=O)C(=O)N[C@@H](CO)C(=O)N[C@@H](Cc1cnc[nH]1)C(=O)N1CCC[C@H]1C(=O)N[C@@H](C)C(=O)N2 [LvIA (N9A)] (H-GCCSHPACAVDHPEIC-NH2; disulfide 2-8, 3-16) was tested, and the Kd [1] was 82.8 nM.

CC[C@H](C)[C@@H]1NC(=O)[C@H](CCC(=O)O)NC(=O)[C@@H]2CCCN2C(=O)[C@H](Cc2cnc[nH]2)NC(=O)[C@H](CC(=O)O)NC(=O)[C@H](C(C)C)NC(=O)[C@H](CC(N)=O)NC(=O)[C@@H]2CSSC[C@H](NC(=O)CN)C(=O)N[C@@H](CSSC[C@@H](C(N)=O)NC1=O)C(=O)N[C@@H](C)C(=O)N[C@@H](Cc1cnc[nH]1)C(=O)N1CCC[C@H]1C(=O)N[C@@H](C)C(=O)N2 [LvIA (S4A)] (H-GCCAHPACNVDHPEIC-NH2; disulfide 2-8, 3-16) showed a Kd [1] of 23.8 nM.

CC[C@H](C)[C@@H]1NC(=O)[C@H](CCC(=O)O)NC(=O)[C@@H]2CCCN2C(=O)[C@H](Cc2cnc[nH]2)NC(=O)[C@H](CC(=O)O)NC(=O)[C@H](C(C)C)NC(=O)[C@H](CC(N)=O)NC(=O)[C@@H]2CSSC[C@H](NC(=O)CN)C(=O)N[C@@H](CSSC[C@@H](C(N)=O)NC1=O)C(=O)N[C@@H](CO)C(=O)N[C@@H](Cc1cnc[nH]1)C(=O)N1CCC[C@H]1C(=O)N[C@@H](C)C(=O)N2 [LvIA WT] gave a Kd [1] of 132 nM.

With α-conotoxin LvIA (N9A) (peptide) the Kd [2] was 82.8 nM.

α-conotoxin LvIA (S4A) (peptide) showed a Kd [2] of 23.8 nM.

In the case of α-conotoxin LvIA (peptide), the Kd [2] is reported as 132 nM.
